Test systems include RPMI-8226 leukemia; UO-31 renal; NCI-H23 lung; PC-3 prostate; DU-145 prostate; NCI-H522 lung; CAKI-1 renal; OVCAR-4 ovarian.
Holding throughout (assay): NCI-60 cell line screen, 48 h

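Five compound concentrations were applied to cells in 96-well plates for 48 hours; endpoints were derived by simple linear interpolation of the resulting dose-response curve. GI50 marks 50% less growth. Definition used: TGI = concentration required for complete inhibition of growth.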 *1 amine or outer side, *2 acyl side, *3 side chain or, on linkers, in order; H or OH if unused. Where a SMILES comes first, the peptide text is derived from it. [ ]: non-standard residue; d: D form. ξ: configuration not given here. X21 = CC[C@@H](C)C(N[*:1])C(=O)[*:2]; ξR = N=C(N)NCCCC(N)C(=O)O; ξI = CCC(C)C(N)C(=O)O; ξL = CC(C)CC(N)C(=O)O; ξK = NCCCCC(N)C(=O)O; ξV = CC(C)C(N)C(=O)O; ξA = CC(N)C(=O)O Where only a bound is given, the exact number is not on record here.

`CC(=O)OC1Oc2ccccc2-c2oc(=O)c(-c3cc4ccccc4oc3=O)cc21` (stereo not given): the GI50 in the experiment on RPMI-8226 leukemia was 18.7 µM; with UO-31 renal, 18 µM; with NCI-H23 lung, 24 µM; in the experiment on PC-3 prostate it was 29.1 µM; in the experiment with DU-145 prostate, 20.1 µM; in the experiment on NCI-H522 lung, 18.5 µM. Further, the GI50 with CAKI-1 renal is 26.9 µM; in the experiment with OVCAR-4 ovarian, 23.1 µM. For the same compound, the TGI with RPMI-8226 leukemia is 41.2 µM; with UO-31 renal it was 35.4 µM; in the experiment on NCI-H23 lung it was 52.4 µM; with PC-3 prostate, over 100 µM; with DU-145 prostate, 52.5 µM; with NCI-H522 lung it was 36.3 µM. Moreover, the TGI in the experiment on CAKI-1 renal was 66.1 µM; with OVCAR-4 ovarian, 50.9 µM.

As for `Nc1ncnc2c1cnn2Cc1ccc(Cl)cc1`, the GI50 with RPMI-8226 leukemia is over 100 µM; in the experiment with CAKI-1 renal, 31.8 µM. The TGI in the experiment with RPMI-8226 leukemia, in the experiment on UO-31 renal, in the experiment on NCI-H23 lung, in the experiment on PC-3 prostate, with DU-145 prostate and with NCI-H522 lung was over 100 µM each time. The TGI in the experiment with CAKI-1 renal and with OVCAR-4 ovarian was over 100 µM each time.

With `Cn1c(=O)c(Oc2ccccc2)cc2cnc(NC3CCOCC3)nc21`, the GI50 in the experiment on RPMI-8226 leukemia, in the experiment on UO-31 renal, with NCI-H23 lung, in the experiment with PC-3 prostate, with DU-145 prostate and with NCI-H522 lung was over 25 µM each time. Also, the GI50 in the experiment on CAKI-1 renal and with OVCAR-4 ovarian was over 25 µM each time. For the same compound, the TGI in the experiment on RPMI-8226 leukemia, in the experiment on UO-31 renal, in the experiment with NCI-H23 lung, in the experiment with PC-3 prostate, with DU-145 prostate and in the experiment with NCI-H522 lung was over 25 µM throughout. For the same compound, the TGI in the experiment with CAKI-1 renal and in the experiment on OVCAR-4 ovarian was over 25 µM throughout.

Turning to `Nc1nc(-c2cccc([N+](=O)[O-])c2)cc(-c2cc(-c3cccc([N+](=O)[O-])c3)nc(N)n2)n1`, the TGI with RPMI-8226 leukemia, with UO-31 renal, in the experiment with NCI-H23 lung, with PC-3 prostate, in the experiment on DU-145 prostate and in the experiment on NCI-H522 lung was over 100 µM each time. For the same compound, the TGI in the experiment with CAKI-1 renal and with OVCAR-4 ovarian was over 100 µM each time.

On to `CCC(C)C1NC(=O)C(CC(C)C)NC(=O)C(C)NC(=O)C(C(C)C)NC(=O)C(CCCCN)NC(=O)C(CC(C)C)NC(=O)C(C(C)C)NC(=O)[C@H](C)NC(=O)C(C(C)CC)NC(=O)C(CCCN=C(N)N)NC(=O)C(CCCCN)NC(=O)C(CCCN=C(N)N)NC(=O)C(CCCCN)NC(=O)C([C@H](C)CC)NC(=O)C(CCCCN)NC1=O` (stereo not given in full) (cyclo(A[ξV][ξL][ξK][ξV][ξA][ξL][ξI][ξK][X21][ξK][ξR][ξK][ξR][ξI])), for which the GI50 is 0.305 µM with RPMI-8226 leukemia; 1.37 µM in the experiment on UO-31 renal; 0.43 µM in the experiment on NCI-H23 lung; 0.701 µM with PC-3 prostate; 1.81 µM in the experiment on DU-145 prostate; 1.45 µM in the experiment on NCI-H522 lung. In addition, the GI50 is 1.38 µM with CAKI-1 renal and 0.72 µM in the experiment on OVCAR-4 ovarian. For the same compound, the TGI with RPMI-8226 leukemia was determined as 1.13 µM; in the experiment with UO-31 renal, 2.67 µM; with NCI-H23 lung, 2.22 µM; in the experiment with PC-3 prostate, 4.85 µM; in the experiment with DU-145 prostate, 4.75 µM; with NCI-H522 lung, 3.88 µM. Moreover, the TGI in the experiment with CAKI-1 renal was determined as 3.04 µM; in the experiment on OVCAR-4 ovarian, 10.2 µM.

For `COc1cc(OC)c(C(=O)/C=C/c2cccc(OC(C)=O)c2)cc1CC=C(C)C`, the GI50 was 8.94 µM with RPMI-8226 leukemia; 15.9 µM in the experiment with UO-31 renal; 8.05 µM with NCI-H23 lung; 9.4 µM in the experiment on PC-3 prostate; 6.18 µM with DU-145 prostate; 8.76 µM with NCI-H522 lung. Besides, the GI50 was 23.2 µM with CAKI-1 renal and 5.73 µM in the experiment with OVCAR-4 ovarian. Further, the TGI with RPMI-8226 leukemia was 33.7 µM; in the experiment on UO-31 renal it was over 50 µM; in the experiment with NCI-H23 lung, 18.5 µM; in the experiment on PC-3 prostate, 44 µM; in the experiment with DU-145 prostate, 14.6 µM; in the experiment on NCI-H522 lung it was 22.2 µM. The TGI with CAKI-1 renal and in the experiment with OVCAR-4 ovarian was over 50 µM in each case.

Turning to `NC(=O)c1ccc2nc3c(n2c1)C(=O)C(=O)c1ccccc1-3`, the GI50 was 2.2 µM in the experiment with RPMI-8226 leukemia; 1.47 µM in the experiment on UO-31 renal; 0.42 µM with NCI-H23 lung; 1.04 µM in the experiment on PC-3 prostate; 0.928 µM in the experiment on DU-145 prostate; 0.679 µM in the experiment on NCI-H522 lung. Moreover, the GI50 is 1.67 µM in the experiment on CAKI-1 renal and 0.481 µM in the experiment on OVCAR-4 ovarian. Besides, the TGI with RPMI-8226 leukemia was 5.52 µM; with UO-31 renal it was 2.79 µM; with NCI-H23 lung it was 2.8 µM; with PC-3 prostate, 2.78 µM; with DU-145 prostate, 2.24 µM; in the experiment on NCI-H522 lung it was 2.18 µM. In addition, the TGI with CAKI-1 renal was 3.22 µM; in the experiment with OVCAR-4 ovarian, 1.71 µM.

As for `COc1ccc2c(c1)/C(=N/OC(C)=O)c1c-2c(=O)[nH]c2ccccc12`, the GI50 with RPMI-8226 leukemia was 5.12 µM; in the experiment with UO-31 renal, 11.1 µM; in the experiment on NCI-H23 lung, 2.34 µM; with PC-3 prostate it was 11.8 µM; with DU-145 prostate it was 10.6 µM; in the experiment on NCI-H522 lung, 13.5 µM. Also, the results for the GI50 in the experiment on CAKI-1 renal and in the experiment on OVCAR-4 ovarian were 11.5 µM and 4.88 µM, respectively. The TGI is 21.8 µM in the experiment with RPMI-8226 leukemia; 25.2 µM in the experiment on UO-31 renal; 16.2 µM in the experiment on NCI-H23 lung; 26 µM in the experiment with PC-3 prostate; 25.3 µM in the experiment on DU-145 prostate; 31.4 µM in the experiment with NCI-H522 lung. Besides, the figures for the TGI in the experiment on CAKI-1 renal and with OVCAR-4 ovarian were 25.6 µM and 21.3 µM, respectively.

On to `O=C(COc1cccc(/C=C2\CSc3ccccc3C2=O)c1)c1ccc(Cl)cc1`, for which the GI50 in the experiment on RPMI-8226 leukemia was over 100 µM; in the experiment with UO-31 renal it was 1.63 µM; with NCI-H23 lung it was 1.92 µM; in the experiment with PC-3 prostate it was 2.01 µM; in the experiment on DU-145 prostate, 2.31 µM; in the experiment with NCI-H522 lung it was 1.61 µM. Besides, the values for the GI50 in the experiment with CAKI-1 renal and in the experiment with OVCAR-4 ovarian were 3.97 µM and 3.09 µM, respectively. For the same compound, the TGI with RPMI-8226 leukemia was over 100 µM; in the experiment on UO-31 renal it was 3.32 µM; in the experiment on NCI-H23 lung, 4.15 µM; with PC-3 prostate, 5.25 µM; in the experiment with DU-145 prostate, 5.61 µM; with NCI-H522 lung, 3.67 µM. For the same compound, the TGI is 10.1 µM in the experiment with CAKI-1 renal and over 42.1 µM in the experiment on OVCAR-4 ovarian.

The values above are taken from PubChem BioAssay (NCI).
